In patent US20250032641A1, “IMMUNE- STIMULATING COMPOUNDS LINKED TO GLYCOGEN-BASED POLYSACCHARIDE NANOPARTICLES FOR SENSITIZING CANCER CELLS TO A CHEMOTHERAPEUTIC DRUG” (GLYSANTIS BIOTECH INC., priority 2020, published 2025):

Columns and labels:
[1] = system: pI:pC resistant SKOV-3 cells; experiment: Cell viability by alamar blue, carboplatin alone or combined with free or nanoparticle bound pI:pC; assay type: cell-based; conditions: carboplatin combination, 72 hours
Experimental: Twenty-four (24) hours post seeding, cells were left untreated, or treated with EC50 carboplatin, 125 ng/ml pI:pC, 125 ng/ml pI:pC ionically bound to glycogen nanoparticles (1:1 w/w), or the combination of EC50 carboplatin and 125 ng/ml pI:pC, or EC50 carboplatin and 125 ng/ml nanoparticle bound pI:pC, and cell viability was measured after 72 hours incubation.
Cell viability was measured by alamar blue of pI:pC resistant SKOV-3 cells treated with carboplatin alone, or in combination with “free” pI:pC or glycogen nanoparticle bound pI:pC. SKOV-3 cells were plated in a 12-well dish at 1.5×10^6 per well. Twenty-four (24) hours post seeding, cells were left untreated, or treated with EC50 carboplatin, 125 ng/ml pI:pC, 125 ng/ml pI:pC ionically bound to glycogen nanoparticles (1:1 w/w), or the combination of EC50 carboplatin and 125 ng/ml pI:pC, or EC50carboplatin and 125 ng/ml nanoparticle bound pI:pC. Cells were incubated at 37° C., 5% CO2 for 72 hours, and cell viability was measured by alamar blue assay according to the manufacturer's protocol (Invitrogen).

[2] = system: IFN-beta, ISG15, CXCL10 transcripts in SKOV3, SKBR3, MCF7, HeLa, B16F10 cells; experiment: qRT-PCR transcript levels of interferon-stimulated genes / innate immune response in cancer cell lines; assay type: cell-based, human; conditions: cancer cells (Breast, Ovarian, Cervical, Melanoma); same doses bound and unbound
Experimental: SKOV-3 cells were treated with media alone (CTRL), 125 ng/ml of pI:pC, or 125 ng/mL of poly IC complexed with 250 ng/ml of PhG (poly IC:PhG) for 6 hours. Transcript levels were measured using qRT-PCR.
SKRBR-3 cells were treated with media alone (CTRL), 2.5 μg/mL of pI:pC, or 2.5 μg/mL of poly IC complexed with 5 μg/mL of PhG (poly IC:PhG) for 6 hours. Transcript levels were measured using qRT-PCR.
MCF-7 cells were treated with media alone (CTRL), 5 μg/mL of pI:pC, or 5 μg/mL of poly IC complexed with 10 μg/mL of PhG (poly IC:PhG) for 6 hours. Transcript levels were measured using qRT-PCR.
HeLa cells were treated with media alone (CTRL), 5 μg/mL of pI:pC, or 5 μg/mL of poly IC complexed with 10 μg/mL of PhG (poly IC:PhG) for 6 hours. Transcript levels were measured using qRT-PCR.
Hela cells were treated with media alone (CTRL), 5 μg/mL of pI:pC, or 5 μg/mL of poly IC complexed with 10 μg/mL of PhG (poly IC:PhG) for 6 hours. Transcript levels were measured using qRT-PCR. […]
Cells were plated in 6-well plates at 1×10E6 cells per well in DMEM and allowed to attach overnight. […] All transcripts were normalized to actin and quantified relative to mock treated.

polyinosinic:polycytidylic acid [unbound pI:pC]
sensitization of pI:pC resistant cells to a chemotherapeutic drug [1]: ineffective | innate immune response [2]: ineffective
